Measured values as given in the NIST ThermoML archive (doi:10.1007/s10765-018-2359-2).
Numbers after ± are expanded uncertainties.

Experiments:
[1] = 100 kPa, Liquid; for thermal conductivity: transient hot wire
[2] = xn = mol fraction of the nth substance listed; details: 100 kPa, Liquid; for thermal conductivity: transient hot wire

## CCOP(=O)([O-])OCC.CCn1cc[n+](C)c1 [1-ethyl-3-methylimidazolium diethyl phosphate]
[1]; 303.15 K
  mass density: 1144.9 ± 10 kg/m3
[1]; 313.15 K
  mass density: 1139.2 ± 10 kg/m3
  thermal conductivity: 0.1745 ± 0.0071 W/m/K
[1]; 333.15 K
  mass density: 1127.2 ± 10 kg/m3
[1]; 353.15 K
  mass density: 1115.2 ± 10 kg/m3

## CCOP(=O)([O-])OCC.CCn1cc[n+](C)c1 [1-ethyl-3-methylimidazolium diethyl phosphate] + O
[2]; 303.15 K, x1 = 0.2
  mass density: 1133.7 ± 10 kg/m3
[2]; 303.15 K, x1 = 0.4
  mass density: 1137.4 ± 10 kg/m3
[2]; 303.15 K, x1 = 0.6
  mass density: 1139.3 ± 10 kg/m3
[2]; 303.15 K, x1 = 0.8
  mass density: 1143.2 ± 10 kg/m3
[2]; 303.15 K, x1 = 1
  mass density: 1144.9 ± 10 kg/m3
[2]; 313.15 K, x1 = 0.2
  thermal conductivity: 0.2341 ± 0.0094 W/m/K
  mass density: 1126 ± 10 kg/m3
[2]; 313.15 K, x1 = 0.4
  thermal conductivity: 0.1964 ± 0.0079 W/m/K
  mass density: 1131.3 ± 10 kg/m3
[2]; 313.15 K, x1 = 0.6
  thermal conductivity: 0.1849 ± 0.0074 W/m/K
  mass density: 1133.3 ± 10 kg/m3
[2]; 313.15 K, x1 = 0.8
  thermal conductivity: 0.1783 ± 0.0072 W/m/K
  mass density: 1137.2 ± 10 kg/m3
[2]; 313.15 K, x1 = 1
  thermal conductivity: 0.1745 ± 0.0071 W/m/K
  mass density: 1139.2 ± 10 kg/m3
[2]; 333.15 K, x1 = 0.2
  mass density: 1112.4 ± 10 kg/m3
[2]; 333.15 K, x1 = 0.4
  mass density: 1118.3 ± 10 kg/m3
[2]; 333.15 K, x1 = 0.6
  mass density: 1121.1 ± 10 kg/m3
[2]; 333.15 K, x1 = 0.8
  mass density: 1124.4 ± 10 kg/m3
[2]; 333.15 K, x1 = 1
  mass density: 1127.2 ± 10 kg/m3
[2]; 353.15 K, x1 = 0.2
  mass density: 1098.8 ± 10 kg/m3
[2]; 353.15 K, x1 = 0.4
  mass density: 1105.7 ± 10 kg/m3
[2]; 353.15 K, x1 = 0.6
  mass density: 1108.9 ± 10 kg/m3
[2]; 353.15 K, x1 = 0.8
  mass density: 1118 ± 10 kg/m3
[2]; 353.15 K, x1 = 1
  mass density: 1115.2 ± 10 kg/m3

## O [water]
[1]; 302.39 K
  thermal conductivity: 0.6187 ± 0.025 W/m/K
[1]; 314.31 K
  thermal conductivity: 0.6334 ± 0.025 W/m/K
[1]; 333.54 K
  thermal conductivity: 0.656 ± 0.026 W/m/K
[1]; 353.53 K
  thermal conductivity: 0.67 ± 0.027 W/m/K
